From patent US20220135591A1, “HETEROCYCLIC COMPOUNDS AS INHIBITORS OF MONOACYLGLYCEROL LIPASE (MAGL)” (Hoffmann-La Roche Inc., priority 2019, published 2022)
pIC50: −log10 of the molar value.

These compounds were tested against T1, MAGL (recombinant wild-type) (Homo sapiens, UniProt Q99685) (assay: 4-NPA assay: MAGL inhibitory activity by hydrolysis of 4-nitrophenylacetate, absorbance at 405 nm). Settings: 4-NPA assay (values without footnote [b]).
T1 sequence (Q99685 1-303): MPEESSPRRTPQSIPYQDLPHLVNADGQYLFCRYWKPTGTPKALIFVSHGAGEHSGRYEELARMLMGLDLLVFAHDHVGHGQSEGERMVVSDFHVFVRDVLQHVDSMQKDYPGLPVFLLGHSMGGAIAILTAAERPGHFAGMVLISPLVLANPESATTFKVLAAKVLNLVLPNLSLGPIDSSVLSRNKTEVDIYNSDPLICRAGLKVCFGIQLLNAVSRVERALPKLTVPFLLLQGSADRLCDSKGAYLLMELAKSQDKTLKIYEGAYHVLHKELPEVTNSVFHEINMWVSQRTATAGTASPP
Assay type: biochemical
Procedure: Compounds were profiled for MAGL inhibitory activity by measuring the enzymatic activity of MAGL by following the hydrolysis of 4-nitrophenylacetate resulting in 4-nitrophenol, which absorbs at 405-412 nm (G. G. Muccioli, G. Labar, D. M. Lambert, Chem. Bio. Chem. 2008, 9, 2704-2710). This assay is hereinafter abbreviated “4-NPA assay”.
The assay was carried out in 384 well assay plates (black with clear bottom, non-binding surface treated, Corning Ref. 3655) in a total volume of 40 μL. Compound dilutions were made in 100% DMSO (VWR Chemicals 23500.297) in a polypropylene plate in 3-fold dilution steps to give a final concentration range in the assay from 25 μM to 1.7 nM. 1 μL compound dilutions (100% DMSO) were added to 19 μL MAGL (recombinant wild-type) in assay buffer (50 mM TRIS (GIBCO, 15567-027), 1 mM EDTA (Fluka, 03690-100 mL)). The plate was shaked for 1 min at 2000 rpm (Variomag Teleshake) and then incubated for 15 min at RT. To start the reaction, 20 μL 4-Nitrophenlyacetate (Sigma N-8130) in assay buffer with 6% EtOH was added. The final concentrations in the assay were 1 nM MAGL and 300 μM 4-Nitrophenylacetate. After shaking (1 min, 2000 rpm) and 5 min incubation at RT, the absorbance at 405 nm was measured for a first time (Molecular Devices, SpectraMax Paradigm). A second measurement was then done after incubation for 80 min at RT. From the two measurements, the slope was calculated by subtracting the first from the second measurement.

In order of rising pIC50:
1. CC1(Cn2ncnc2-c2ccc(C(=O)N3CCN(c4nc5nc(Cl)ccc5o4)CC3)cc2)CC1 [Example 50, [4-(5-chlorooxazolo[4,5-b]pyridin-2-yl)piperazin-1-yl]-[4-[2-[(1-methylcyclopropyl)methyl]-1,2,4-triazol-3-yl]phenyl]methanone]  5.37
2. Cc1ccc2oc(N3CCN(C(=O)c4ccc(-c5noc(C6(F)CC6)n5)cc4)CC3)nc2n1 [Example 35, [4-[5-(1-fluorocyclopropyl)-1,2,4-oxadiazol-3-yl]phenyl]-[4-(5-methyloxazolo[4,5-b]pyridin-2-yl)piperazin-1-yl]methanone]  6.43
3. CC(C)(C)c1nc(-c2ccc(C(=O)N3CCN(c4nc5nc(Cl)ccc5o4)CC3)cn2)no1 [Example 61, [6-(5-tert-butyl-1,2,4-oxadiazol-3-yl)-3-pyridyl]-[4-(5-chlorooxazolo[4,5-b]pyridin-2-yl)piperazin-1-yl]methanone]  6.57
4. Cc1ccc2oc(N3CCN(C(=O)c4ccc(-c5noc(C6(CF)CC6)n5)cc4)CC3)nc2n1 [Example 36, [4-[5-[1-(fluoromethyl)cyclopropyl]-1,2,4-oxadiazol-3-yl]phenyl]-[4-(5-methyloxazolo[4,5-b]pyridin-2-yl)piperazin-1-yl]methanone]  6.59
5. CC(C)(CF)c1nnc(-c2ccc(C(=O)N3CCN(c4nc5nc(Cl)ccc5o4)CC3)cc2)o1 [Example 34, [4-(5-chlorooxazolo[4,5-b]pyridin-2-yl)piperazin-1-yl]-[4-[5-(2-fluoro-1,1-dimethyl-ethyl)-1,3,4-oxadiazol-2-yl]phenyl]methanone; 2,2,2-trifluoroacetic acid]  6.75
6. O=C(c1ccc(-c2noc(C3(CF)CC3)n2)cc1)N1CCN(c2nc3nc(Cl)ccc3o2)CC1 [Example 37, [4-(5-chlorooxazolo[4,5-b]pyridin-2-yl)piperazin-1-yl]-[4-[5-[1-(fluoromethyl)cyclopropyl]-1,2,4-oxadiazol-3-yl]phenyl]methanone]  7.00
7. Cc1ccc2oc(N3CCN(C(=O)c4ccc(-c5ncn(C(C)(C)C)n5)cc4)CC3)nc2n1 [Example 42, [4-(1-tert-butyl-1,2,4-triazol-3-yl)phenyl]-[4-(5-methyloxazolo[4,5-b]pyridin-2-yl)piperazin-1-yl]methanone]  7.07
8. CC1CN(c2nc3nc(Cl)ccc3o2)CCN1C(=O)c1ccc(-c2noc(C(C)(C)C)n2)cc1 (stereo not shown) [Example 45, [4-(5-tert-butyl-1,2,4-oxadiazol-3-yl)phenyl]-[4-(5-chlorooxazolo[4,5-b]pyridin-2-yl)-2-methyl-piperazin-1-yl]methanone]  7.14
9. Cc1ccc2oc(N3CCN(C(=O)c4ccc(-c5noc(C6(C)CC6)n5)cc4)CC3)nc2n1 [Example 51, [4-[5-(1-methylcyclopropyl)-1,2,4-oxadiazol-3-yl]phenyl]-[4-(5-methyloxazolo[4,5-b]pyridin-2-yl)piperazin-1-yl]methanone]  7.17
10. Cc1ccc2oc(N3CCN(C(=O)c4ccc(-n5cnc(C(C)(C)C)c5)cc4)CC3)nc2n1 [Example 55, [4-(4-tert-butylimidazol-1-yl)phenyl]-[4-(5-methyloxazolo[4,5-b]pyridin-2-yl)piperazin-1-yl]methanone]  7.20
11. CC1(COc2ccc(C(=O)N3CCN(c4nc5nc(Cl)ccc5o4)CC3)cc2Cl)CC1 [Example 60, [3-chloro-4-[(1-methylcyclopropyl)methoxy]phenyl]-[4-(5-chlorooxazolo[4,5-b]pyridin-2-yl)piperazin-1-yl]methanone]  7.34
12. Cc1ccc2oc(N3CCN(C(=O)c4ccc(-c5nc(C(C)(C)C)no5)cc4)CC3)nc2n1 [Example 38, [4-(3-tert-butyl-1,2,4-oxadiazol-5-yl)phenyl]-[4-(5-methyloxazolo[4,5-b]pyridin-2-yl)piperazin-1-yl]methanone]  7.35
13. Cc1ccc2oc(N3CCN(C(=O)c4ccc(-c5noc(C(C)(C)C)n5)c(F)c4)CC3)nc2n1 [Example 58, [4-(5-tert-butyl-1,2,4-oxadiazol-3-yl)-3-fluoro-phenyl]-[4-(5-methyloxazolo[4,5-b]pyridin-2-yl)piperazin-1-yl]methanone]  7.37
14. Cc1ccc2oc(N3CCN(C(=O)c4ccc(-c5cnn(C(C)(C)C)c5)cc4)CC3)nc2n1 [Example 47, [4-(1-tert-butylpyrazol-4-yl)phenyl]-[4-(5-methyloxazolo[4,5-b]pyridin-2-yl)piperazin-1-yl]methanone]  7.43
15. CC(C)(C)n1cnc(-c2ccc(C(=O)N3CCN(c4nc5nc(Cl)ccc5o4)CC3)cc2)n1 [Example 41, [4-(1-tert-butyl-1,2,4-triazol-3-yl)phenyl]-[4-(5-chlorooxazolo[4,5-b]pyridin-2-yl)piperazin-1-yl]methanone]  7.54
16. CC1CN(C(=O)c2ccc(-c3noc(C(C)(C)C)n3)cc2)CCN1c1nc2nc(Cl)ccc2o1 (stereo not shown) [Example 46, [4-(5-tert-butyl-1,2,4-oxadiazol-3-yl)phenyl]-[4-(5-chlorooxazolo[4,5-b]pyridin-2-yl)-3-methyl-piperazin-1-yl]methanone]  7.55
17. CC(C)(C)c1noc(-c2ccc(C(=O)N3CCN(c4nc5nc(Cl)ccc5o4)CC3)cc2)n1 [Example 39, [4-(3-tert-butyl-1,2,4-oxadiazol-5-yl)phenyl]-[4-(5-chlorooxazolo[4,5-b]pyridin-2-yl)piperazin-1-yl]methanone]  7.72
18. CC(C)(C)n1cc(-c2ccc(C(=O)N3CCN(c4nc5nc(Cl)ccc5o4)CC3)cc2)cn1 [Example 48, [4-(1-tert-butylpyrazol-4-yl)phenyl]-[4-(5-chlorooxazolo[4,5-b]pyridin-2-yl)piperazin-1-yl]methanone]  7.82
19. CC(C)(C)c1nc(-c2ccc(C(=O)N3CCN(c4nc5nc(Cl)ccc5o4)CC3)cc2F)no1 [Example 59, [4-(5-tert-butyl-1,2,4-oxadiazol-3-yl)-3-fluoro-phenyl]-[4-(5-chlorooxazolo[4,5-b]pyridin-2-yl)piperazin-1-yl]methanone]  7.82
20. CC1(Cn2cnc(-c3ccc(C(=O)N4CCN(c5nc6nc(Cl)ccc6o5)CC4)cc3)n2)CC1 [Example 49, [4-(5-chlorooxazolo[4,5-b]pyridin-2-yl)piperazin-1-yl]-[4-[1-[(1-methylcyclopropyl)methyl]-1,2,4-triazol-3-yl]phenyl]methanone]  7.89
21. Cc1ccc2oc(N3CCN(C(=O)c4ccc(-n5cc(C(C)(C)C)cn5)cc4)CC3)nc2n1 [Example 53, [4-(4-tert-butylpyrazol-1-yl)phenyl]-[4-(5-methyloxazolo[4,5-b]pyridin-2-yl)piperazin-1-yl]methanone]  7.92
22. Cc1ccc2oc(N3CCN(C(=O)c4ccc(-c5noc(C(C)(C)C)n5)c(C)c4)CC3)nc2n1 [Example 56, [4-(5-tert-butyl-1,2,4-oxadiazol-3-yl)-3-methyl-phenyl]-[4-(5-methyloxazolo[4,5-b]pyridin-2-yl)piperazin-1-yl]methanone]  7.96
23. CC1(Cc2nc(-c3ccc(C(=O)N4CCN(c5nc6nc(Cl)ccc6o5)CC4)cc3)no2)CC1 [Example 40, [4-(5-chlorooxazolo[4,5-b]pyridin-2-yl)piperazin-1-yl]-[4-[5-[(1-methylcyclopropyl)methyl]-1,2,4-oxadiazol-3-yl]phenyl]methanone]  8.22
24. CC(C)(C)Cn1cc(-c2ccc(C(=O)N3CCN(c4nc5nc(Cl)ccc5o4)CC3)cc2)nn1 [Example 43, [4-(5-chlorooxazolo[4,5-b]pyridin-2-yl)piperazin-1-yl]-[4-[1-(2,2-dimethylpropyl)triazol-4-yl]phenyl]methanone]  8.22
25. Cc1ccc2oc(N3CCN(C(=O)c4ccc(-c5cnn(CC(C)(C)C)c5)cc4)CC3)nc2n1 [Example 54, [4-[1-(2,2-dimethylpropyl)pyrazol-4-yl]phenyl]-[4-(5-methyloxazolo[4,5-b]pyridin-2-yl)piperazin-1-yl]methanone]  8.22
26. CC(C)(C)c1cnn(-c2ccc(C(=O)N3CCN(c4nc5nc(Cl)ccc5o4)CC3)cc2)c1 [Example 52, [4-(4-tert-butylpyrazol-1-yl)phenyl]-[4-(5-chlorooxazolo[4,5-b]pyridin-2-yl)piperazin-1-yl]methanone]  8.30
27. Cc1cc(C(=O)N2CCN(c3nc4nc(Cl)ccc4o3)CC2)ccc1-c1noc(C(C)(C)C)n1 [Example 57, [4-(5-tert-butyl-1,2,4-oxadiazol-3-yl)-3-methyl-phenyl]-[4-(5-chlorooxazolo[4,5-b]pyridin-2-yl)piperazin-1-yl]methanone]  8.30
28. CC(C)(C)Cn1ncc(-c2ccc(C(=O)N3CCN(c4nc5nc(Cl)ccc5o4)CC3)cc2)n1 [Example 44, [4-(5-chlorooxazolo[4,5-b]pyridin-2-yl)piperazin-1-yl]-[4-[2-(2,2-dimethylpropyl)triazol-4-yl]phenyl]methanone]  8.52
